# Like-named read-outs stand apart in the source and are kept apart here.
# How the values were obtained:
# Litomosoides sigmodontis [1] = system: Litomosoides sigmodontis; design: method as in Reddy 1983 (Ref. 15); details: L3 (mite), Mastomys natalensis, patent phase, necropsy 43 days p.t., ref Reddy 1983 (Ref. 15), cited from earlier work
# [2] = system: Onchocerca gutturosa adult male worms; assay: O. gutturosa adult male worm 5-day motility assay
# Brugia pahangi [3] = system: Brugia pahangi; design: method as in Devaney 1985 (Ref. 8); details: 50L3, balb/c, SC 10 or 50 mg/kg 5 cons. days, 4 days p.i., necropsy 3-4 weeks p.t.; ref Devaney 1985 (Ref. 8); cited from earlier work
# [4] = system: Onchocerca gutturosa adult male worms; assay: O. gutturosa adult worm MTT/formazan viability assay; details: 120 h
# Litomosoides sigmodontis [5] = assay: Patent L. sigmodontis infection in jirds (adult worms, microfilaremia, embryogenesis); details: jirds, SC 2 mg/kg QD for 5 days
# Brugia pahangi [6] = details: cited from earlier work
# Brugia pahangi [7] = system: Brugia pahangi; design: method as in Reddy 1983 (Ref. 15); details: L3 (SC), Mastomys natalensis, patent phase, necropsy 43 days p.t., ref Reddy 1983 (Ref. 15), cited from earlier work
# Brugia malayi = system: Brugia malayi; design: method as in Maeda 1988 (Ref. 14); details: 150-200L3 (SC), jird, IP 20mg/kg 5 cons. days, 9 months p.i., necropsy 5 weeks p.t.; ref Maeda 1988 (Ref. 14); cited from earlier work
# [8] = system: Onchocerca lienalis microfilariae; assay: O. lienalis microfilariae 5-day motility assay; details: 120 h
structure (smiles),measurement,setting,value
COC(=O)Nc1nc2cc(C(=O)c3ccc(F)cc3)ccc2[nH]1 [flubendazole],Reduction of worm burden,Litomosoides sigmodontis [1]; SC 100mg/kg 5 cons. days,100%
same,Reduction of worm burden,Litomosoides sigmodontis [1]; per os 150mg/kg 5 cons. days,0%
same,Motility Reduction (%),"[2]; 1.25 x 10^-5 M, 24 h",10%
same,Motility Reduction (%),"[2]; 1.25 x 10^-5 M, 48 h",12%
same,Motility Reduction (%),"[2]; 1.25 x 10^-5 M, 72 h",33%
same,Motility Reduction (%),"[2]; 1.25 x 10^-5 M, 96 h",44%
same,Motility Reduction (%),"[2]; 1.25 x 10^-5 M, 120 h",51%
same,Motility Reduction (%),"[2]; 3.1 x 10^-6 M, 24 h",4%
same,Motility Reduction (%),"[2]; 3.1 x 10^-6 M, 48 h",5%
same,Motility Reduction (%),"[2]; 3.1 x 10^-6 M, 72 h",16%
same,Motility Reduction (%),"[2]; 3.1 x 10^-6 M, 96 h",38%
same,Motility Reduction (%),"[2]; 3.1 x 10^-6 M, 120 h",40%
same,Motility Reduction (%),"[2]; 5.0 x 10^-5 M, 24 h",23%
same,Motility Reduction (%),"[2]; 5.0 x 10^-5 M, 48 h",22%
same,Motility Reduction (%),"[2]; 5.0 x 10^-5 M, 72 h",36%
same,Motility Reduction (%),"[2]; 5.0 x 10^-5 M, 96 h",38%
same,Motility Reduction (%),"[2]; 5.0 x 10^-5 M, 120 h",54%
same,Motility Reduction (%),"[2]; 7.8 x 10^-7 M, 24 h",6%
same,Motility Reduction (%),"[2]; 7.8 x 10^-7 M, 48 h",9%
same,Motility Reduction (%),"[2]; 7.8 x 10^-7 M, 72 h",13%
same,Motility Reduction (%),"[2]; 7.8 x 10^-7 M, 96 h",33%
same,Motility Reduction (%),"[2]; 7.8 x 10^-7 M, 120 h",26%
same,Reduction of worm burden,Brugia pahangi [3],100%
same,MTT Reduction (%),[4]; 1.25 x 10^-5 M,2%
same,MTT Reduction (%),[4]; 3.1 x 10^-6 M,3%
same,MTT Reduction (%),[4]; 5.0 x 10^-5 M,20%
same,MTT Reduction (%),[4]; 7.8 x 10^-7 M,3%
same,adult worms at necropsy,Litomosoides sigmodontis [5]; necropsy 16 weeks post-treatment,no adult worms were recovered
same,clearance of microfilariae from peripheral blood,Litomosoides sigmodontis [5]; week 4 after treatment start,all microfilariae were cleared
same,Reduction of worm burden,"Brugia pahangi [6]; 15Ad (IP), jirds, SC 0.7mg/kg 5 cons. days, ref Denham 1979 (Ref. 4)",40%
same,Reduction of worm burden,"Brugia pahangi [6]; 15Ad (IP), jirds, SC 3.1mg/kg x1, ref Denham 1979 (Ref. 4)",23%
same,Reduction of worm burden,"Brugia pahangi [6]; 15Ad (IP), jirds, SC 5mg/kg 5 cons. days, 4 days p.i., necropsy 5 weeks p.t., ref Surin 1990 (Ref. 11)",100%
same,Reduction of worm burden,"Brugia pahangi [6]; 15Ad (IP), jirds, SC 6.3-12.5 mg/kg x1, ref Denham 1979 (Ref. 4)",70-80%
same,Reduction of worm burden,"Brugia pahangi [6]; 15Ad (IP), jirds, SC 10-50-100mg/ml 5 cons. days, ref Denham 1979 (Ref. 4)",96-100%
same,Reduction of worm burden,"Brugia pahangi [6]; 15Ad (IP), jirds, SC 25-200mg/kg x1, ref Denham 1979 (Ref. 4)",>98%
same,Reduction of worm burden,"Brugia pahangi [6]; 50L3 (IP), jirds, SC 5mg/kg 5 cons. days, 70 days p.i., necropsy 5 weeks p.t., ref Surin 1990 (Ref. 11)",98.5%
same,Reduction of worm burden,"Brugia pahangi [6]; 50L3 (IP), jirds, SC 25mg/kg 5 cons. days, 70 days p.i., necropsy 5 weeks p.t., ref Surin 1990 (Ref. 11)",100%
same,Reduction of worm burden,"Brugia pahangi [6]; 50L3 (IP), jirds, SC 25mg/kg x1, prepatent phase, necropsy 3-9 days p.t., ref Denham 1979 (Ref. 4)",no reduction
same,Reduction of worm burden,"Brugia pahangi [6]; 50L3 (IP), jirds, SC 25mg/kg x1, prepatent phase, necropsy 12-24 days p.t., ref Denham 1979 (Ref. 4)",80%
same,Reduction of worm burden,"Brugia pahangi [6]; 50L3 (IP), jirds, SC 25mg/kg x1, prepatent phase, necropsy 27-36 days p.t., ref Denham 1979 (Ref. 4)",100%
same,Reduction of worm burden,"Brugia pahangi [6]; prophylactic, 15Ad (IP), jirds, SC 100mg/kg x1, 2,3,4,5 weeks bef. i., necropsy 35 days pi, ref Denham 1980 (Ref. 1)",100%
same,Reduction of worm burden,"Brugia pahangi [6]; prophylactic, 15Ad (IP), jirds, SC 100mg/kg x1, 6,9,12 weeks bef. i., necropsy 35 days pi, ref Denham 1980 (Ref. 1)",92-100%
same,Reduction of worm burden,"Brugia pahangi [6]; prophylactic, 15Ad (IP), jirds, SC 100mg/kg x1, 24 weeks bef. i., necropsy 35 days pi, ref Denham 1980 (Ref. 1)",9%
same,Reduction of worm burden,"Brugia pahangi [6]; prophylactic, 15Ad (IP), jirds, SC 100mg/kg x1, 2 days bef. i., necropsy 35 days pi, ref Denham 1980 (Ref. 1)",100%
same,Reduction of worm burden,"Brugia pahangi [6]; prophylactic, 50L3, jirds, SC 25mg/kg x1, 137 days bef. i., necropsy 9-10 weeks p.t., ref Chusattayanond 1984 (Ref. 2)",8%
same,Reduction of worm burden,Brugia pahangi [7]; SC 100mg/kg 5 cons. days,100%
same,Reduction of worm burden,Brugia pahangi [7]; per os 150mg/kg 5 cons. days,20%
same,Reduction of worm burden,Brugia malayi,100%
same,activity against microfilariae compared to oxfendazole,[8],even less active

# From PMC7365463, “Oxfendazole mediates macrofilaricidal efficacy against the filarial nematode Litomosoides sigmodontis in vivo and inhibits Onchocerca spec. motility in vitro” (PLoS Neglected Tropical Diseases, 2020)
